A compilation of properties of binary mixtures (doi:10.1007/s10973-015-5205-9)

Test: xn = mol fraction of the nth substance listed
Settings: 100 kPa

CCOCCO + CC[n+]1ccn(C)c1.F[B-](F)(F)F
speed of sound [m/s]
Settings	298.15 K	308.15 K	318.15 K	328.15 K
x1 = 0.0466	1614.9	1591.3	1568	1545.2
x1 = 0.0981	1607.6	1583.8	1560.2	1537.4
x1 = 0.1487	–	1575	1551.2	1528.2
x1 = 0.1973	1589.7	1565.3	–	1517.9
x1 = 0.3049	1564.7	1539.7	–	1490.7
x1 = 0.4112	1535	1509.2	1483.5	1458.2
x1 = 0.4953	1508.4	–	1455.3	1428.8
x1 = 0.5705	1482.4	1455	1427.6	–
x1 = 0.696	1435	1406	1376.9	1347.7
x1 = 0.7952	1394.4	1363.9	–	1302.7
x1 = 0.8411	1374.8	1343.6	1311.9	–
x1 = 0.8698	1362.4	–	1298.3	1267.2
x1 = 0.9487	1327.3	1294	1259.9	1228.2
x1 = 1	1304	1269.5	1234.1	1202.2

CC[n+]1ccn(C)c1.F[B-](F)(F)F + CCOCCO
x2 = 0
Settings	speed of sound [m/s]
298.15 K	1620.3
318.15 K	1573.8
328.15 K	1550.9
